Measured values reported in patent US8835403B2, “Algin oligosaccharides and the derivatives thereof as well as the manufacture and the use of the same” (priority 2004, dated 2014).

Key:
[1] = test system: AD mice induced by Aβ1-40; assay: Step-through passive avoidance task of AD mice induced by Aβ1-40; type: in vivo
Description: Male Balb/c mice (18-22 g, purchased from Laboratory Centre of Shandong University) are weighed and randomly assigned to six groups as follows: a control group, a model group, a low-concentration (15 mg/kg) 6-mer-treated group, a middle-concentration (30 mg/kg) 6-mer-treated group, a high-concentration (60 mg/kg) 6-mer-treated group, and a Huperzine A-treated (HBY, with a concentration of 0.2 mg/kg) group. The mice were oral administered with corresponding drugs on day 3 after grouping. The drugs were administered once a day consecutively with a dosage of 0.5 ml/20 g until the experiment is completed. The mice of control and model groups were simultaneously administered with an equivalent amount of normal saline.
On the 25th day after Aβ injection, mice are further trained for step-through passive avoidance task. In the task, each mouse is placed in the illuminated compartment of the apparatus, facing away from the dark compartment, and the door is opened, allowing access to the dark compartment. Once the mouse enters the dark compartment, it receives an inescapable electric shock on the feet (36 V) through the stainless steel grid floor. The test is similarly performed after 24 h. The entry time of each mouse into the dark chamber (step-through latency, maximum testing limited to 3 min) and the number of entries into the dark compartment (number of errors) are recorded.
Each group has 8 animals. The data are presented as mean±SE. The symbol # means significant difference compared with the control group (P<0.05). * means significant difference compared with the model group (P<0.05). The step-through latency of Aβ1-40-treated group is shortened (P<0.01) and the error number is increased (P<0.05) compared with that of the control group, indicating the successful establishment of AD mice.

MDA = MDA content of cerebral cortex and hippocampus of Aβ1-40-induced AD mice; type: in vivo
SH-SY5Y cells [2] = assay: Protection of SH-SY5Y cells impaired by Aβ25-35 and Aβ1-40; type: cell-based; details: 50 and 100 μg/ml; 30 μM aged Aβ25-35 or 2 μM Aβ1-40 for 48 h (FIG. 7, 8)
Description: 6-mer has similar protective effects on neuron cell line SH-SY5Y as the primary neurons. SH-SY5Y impaired with 30 μM of aged Aβ25-35 (FIG. 7) and 2 μM of Aβ1-40 (FIG. 8) for 48 h could induce a series of changes, for example, damage to the cells, reduced number of cells, occurrence of some round cells and suspension cells. Further, the survival rate of the cells is reduced to 73.3±9.4% and 64.1±2.5% respectively.

SH-SY5Y cells [3] = assay: Apoptosis of SH-SY5Y induced by Aβ25-35 (propidium iodide flow cytometry); type: cell-based; details: 30 μM aged Aβ25-35 48 h, Aβ alone 24.8±1.9%
Description: SH-SY5Y cells are incubated in 6-well plates at a density of 2×10^5 cells per well. The day after plating, cells are pretreated with varying concentrations (0, 50, 100 μg/ml) of 6-mer for 24 h, followed by the addition of 30 μM aged Aβ25-35 (purchased from Sigma. Co.). After 48 h at 37° C., cells are digested, collected, washed, centrifuged at 1200 rpm and incubated with […] of a mixture of 5 mg/ml propidium iodide (Hyclone Co.) and 100 U/ml RNase (Hyclone Co.). Then the cells are measured by flow cytometry (BD Co., US), with 8000 cells per sample

Aβ1-40 [4] = molecular target: T1, Aβ1-40 (Homo sapiens, UniProt P05067); assay: Fibril formation of Aβ1-40 studied with TEM; type: biochemical
T1 construct: Fresh Aβ1-40 is incubated alone or with 6-mer
T1 sequence (P05067 672-711 limits assumed): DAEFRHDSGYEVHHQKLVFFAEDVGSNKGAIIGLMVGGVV

Aβ1-40 [5] = molecular target: T1, Aβ1-40; assay: Conformation of Aβ1-40 by CD spectra; type: biochemical; details: 6-mer 100 μg/ml, Aβ1-40 250 μg/ml, 37° C., 12 h (FIG. 11C)
Description: CD spectra (J-[…], JASCO, Japan) of monomeric Aβ1-40 (250 μg/ml in TBS (100 mM Tris, 50 mM NaCl, pH7.4)) incubated at 37° C. for 12 h is mainly characterized by β-sheet secondary structure (FIG. 11A).

Aβ1-40 [6] = molecular target: T1, Aβ1-40; assay: SPR interaction of immobilized 6-mer and aged Aβ1-40; type: binding
Description: SPR technique (BIAcore X, Uppsala, Sweden) is used to characterize the interaction of 6-mer and Aβ. Different degree of aged Aβ1-40 (aged for 0, 0.5, 1, 2, 4, 6 d at 37° C.) in HBS EP buffer solution (0.01 […], 150 mmol/L NaCl, 3.4 mmol/L EDTA-Na2, 0.005 vol % Tween-20, pH 7.4) with 5 concentrations are flowed through the 6-mer-immobilized sensor chip. The flow rate is 5 μl/min, and the injection volume is 10 μl. The binding sensorgramm is recorded and the sensor chip is regenerated with 2M NaCl.

Aβ = Aβ (Homo sapiens, UniProt P05067); assay: Binding site of 6-mer on Aβ (further studies)
[7] = test system: diabetic mice induced by STZ; assay: Blood glucose of diabetic mice induced by streptozotocin (STZ); type: in vivo; details: blood on 11th day, STZ 150 mg/kg i.p.
Description: Sixty male NIH mice (weighed 18-22 g) are randomly divided to control, model, 50, 150, 450 mg/kg 6-mer-treated and 5 mg/kg dimethyldiguanide-treated groups. The mice are injected intraperitoneally with 150 mg/kg STZ except control group at the 1st day. Then the mice are given accordingly drugs consecutively for 10 days and eyeballs are picked out to extract blood on the 11th day. The blood is taken to measure the glucose concentration.

O=C(O)C1OC(OC2C(C(=O)O)OC(OC3C(C(=O)O)OC(OC4C(C(=O)O)OC(OC5C(C(=O)O)OC(OC6C(C(=O)O)OC(O)C(O)C6O)C(O)C5O)C(O)C4O)C(O)C3O)C(O)C2O)C(O)C(O)C1O (stereo not drawn) [6-mer, mannuronic hexasaccharide]
number of errors ([1]; 6-mer-treated groups, vs model group (FIG. 6)): significantly reduced
step-through latency ([1]; 30 and 60 mg/kg 6-mer, vs model group (FIG. 5)): significantly prolonged
MDA content (nmol/ml) cerebral cortex (MDA; 15 mg/kg): 1.79 ± 0.15 nmol/mL
MDA content (nmol/ml) cerebral cortex (MDA; 30 mg/kg): 1.87 ± 0.18 nmol/mL
MDA content (nmol/ml) cerebral cortex (MDA; 60 mg/kg): 1.47 ± 0.11 nmol/mL
MDA content (nmol/ml) hippocampus (MDA; 15 mg/kg): 4.28 ± 0.82 nmol/mL
MDA content (nmol/ml) hippocampus (MDA; 30 mg/kg): 2.48 ± 0.43 nmol/mL
MDA content (nmol/ml) hippocampus (MDA; 60 mg/kg): 2.18 ± 0.43 nmol/mL
neurotoxicity of Aβ (survival rate, suspension cells) (SH-SY5Y cells [2]): significantly inhibit the neurotoxicity of Aβ
percentage of hypodiploid cells (SH-SY5Y cells [3]; 50 μg/ml 6-mer 24 h pretreatment): 10.2±1.3%
percentage of hypodiploid cells (SH-SY5Y cells [3]; 100 μg/ml 6-mer 24 h pretreatment): 5.1±0.7%
fibril formation of Aβ1-40 (TEM) (Aβ1-40 [4]; incubation 24 h and 48 h (FIG. 9)): significantly inhibit the fibril formation of Aβ1-40
fibril formation of Aβ1-40 facilitated by heparin (TEM) (Aβ1-40 [4]; with heparin, 24 h and 48 h (FIG. 9)): significant inhibitory effect
β-sheet formation of monomeric Aβ1-40 (CD) (Aβ1-40 [5]): prevents the β-sheet formation
Kd (Aβ1-40 [6]; Aβ1-40 aged 0.5 d at 37° C.): 107 nM
Kd (Aβ1-40 [6]; Aβ1-40 aged 1 d at 37° C.): 90.6 nM
Kd (Aβ1-40 [6]; Aβ1-40 aged 2 d at 37° C.): 54.3 nM
Kd (Aβ1-40 [6]; Aβ1-40 aged 4 d at 37° C.): 21.5 nM
Kd (Aβ1-40 [6]; Aβ1-40 aged 6 d at 37° C.): 14.5 nM
Kd (Aβ1-40 [6]; fresh Aβ1-40 (aged 0 d)): 685 nM
binding site on Aβ25-35 (Aβ): Ser26˜Lys28
Blood glucose concentration ([7]; 50 mg/kg for 10 days): 219.4 ± 67.8 mg/dL
Blood glucose concentration ([7]; 150 mg/kg for 10 days): 179.6 ± 69.8 mg/dL
Blood glucose concentration ([7]; 450 mg/kg for 10 days): 162.5 ± 3 mg/dL
